Consider 79 compounds from PubChem BioAssay AID2745 (NMMLSC, 2010).

The test in a line: LAP4-GFP modulation potency in yeast, dose response, cell-based, MLPCN hits, flow cytometry (AID 2745).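 Further: yeast exposed to compound for three hours at 30 degrees.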 The settings on record: S. cerevisiae LAP4-GFP reporter, flow cytometry fluorescence; at 33 µM (top of the series). (A flow cytometer gives signals particle by particle.)

Activity calls are given as the source filed them. How the calls were made is not given here.

As for `O=C(CCS(=O)(=O)c1ccccc1)Nc1nc(-c2ccccn2)cs1`, the LAP4-GFP fluorescence (kMESF) was 3.91 kMESF (inactive).

With `CC1=C(C)/C(=N\OS(=O)(=O)c2ccccc2)C=CC1=O`, the LAP4-GFP fluorescence (kMESF) was 9.73 kMESF (inactive).

Consider `C=CCOc1cccc(C(=O)/C=C2/C(=O)Nc3ccccc32)c1`, for which the LAP4-GFP fluorescence (kMESF) is 8.61 kMESF (inactive).

Turning to `Oc1ccc(COCc2ccccc2)c2cccnc12`, the LAP4-GFP fluorescence (kMESF) is 20.4 kMESF (inactive).

Regarding `CN(C)/C=C/C(=O)c1ccc(-c2ccc(Cl)cc2Cl)o1`, the LAP4-GFP fluorescence (kMESF) is 4.39 kMESF (inactive).

For `COc1ccccc1N=Cc1nc(-c2ccccc2)oc1OC(C)=O`, the LAP4-GFP fluorescence (kMESF) is 8.6 kMESF (inactive).

Consider `COc1ccc(-c2cc(C(F)(F)F)nc(S(C)(=O)=O)n2)cc1`, for which the LAP4-GFP fluorescence (kMESF) was 10.6 kMESF (inactive).

On to `COc1ccccc1-c1nc2s/c(=C\c3cccs3)c(=O)n2n1`, for which the LAP4-GFP fluorescence (kMESF) is 5.46 kMESF (inactive).

For the compound `COc1ccc(N=Cc2nc(-c3ccccc3)oc2OC(C)=O)cc1`, the LAP4-GFP fluorescence (kMESF) was 4.93 kMESF (inactive).

Take `Cc1ccc(-c2nn(C(C)(C)C)c3ncnc(N)c23)cc1`: the LAP4-GFP fluorescence (kMESF) was 8.82 kMESF (inactive).

For the compound `Cc1ccc2[nH]cc(/C=C/c3cc[n+](C)cc3)c2c1`, the LAP4-GFP fluorescence (kMESF) was 5.34 kMESF (inactive).

For the compound `CC(=O)Oc1ccc(/C=c2\sc3ncnn3c2=O)cc1`, the LAP4-GFP fluorescence (kMESF) was 10.1 kMESF (inactive).

As for `CC(=O)Nc1ncnc2c1c(-c1ccc(Cl)cc1)nn2C(C)(C)C`, the LAP4-GFP fluorescence (kMESF) is 5.09 kMESF (inactive).

With `Cc1c(NC2=C(Cl)C(=O)N(c3ccccc3Cl)C2=O)c(=O)n(-c2ccccc2)n1C`, the LAP4-GFP fluorescence (kMESF) is 3.78 kMESF (inactive).

In the case of `CCC(=O)Oc1oc(-c2ccccc2)nc1C=Nc1ccc(C)cc1`, the LAP4-GFP fluorescence (kMESF) is 4.73 kMESF (inactive).

As for `NC(=O)COc1ccc(C(=O)/C=C2/C(=O)Nc3ccccc32)cc1`, the LAP4-GFP fluorescence (kMESF) was 6.78 kMESF (inactive).

Consider `O=C(c1ccc(Cl)c([N+](=O)[O-])c1)N1CCN(c2ccccc2)CC1`, for which the LAP4-GFP fluorescence (kMESF) is 8.26 kMESF (inactive).

As for `CCc1ccc(C(=O)/C=C/c2ccc([N+](=O)[O-])o2)cc1`, the LAP4-GFP fluorescence (kMESF) is 10.5 kMESF (inactive).

In the case of `CCN1C(=O)/C(=C\C(=O)c2cccs2)c2cc(Br)ccc21`, the LAP4-GFP fluorescence (kMESF) was 12 kMESF (inactive).

On to `Nc1c(C(=O)c2cccs2)sc2nsc(SCCN3CCCCC3)c12`, for which the LAP4-GFP fluorescence (kMESF) is -1.87 kMESF (inactive).

Turning to `COc1cc(NC(=O)c2ccccc2[N+](=O)[O-])ccc1NC(=O)c1cc2ccccc2o1`, the LAP4-GFP fluorescence (kMESF) is 3.31 kMESF (inactive).

As for `Cc1ccc(/C=C2\SC(=S)N(Cc3ccccc3)C2=O)o1`, the LAP4-GFP fluorescence (kMESF) is 18.1 kMESF (inactive).

For the compound `Cc1ccc(/C=c2\sc3nc(-c4cccs4)nn3c2=O)o1`, the LAP4-GFP fluorescence (kMESF) is 7.32 kMESF (inactive).

Turning to `CCN1/C(=C/C=C/c2sc3ccccc3[n+]2CC)Sc2ccccc21`, the LAP4-GFP fluorescence (kMESF) is 7.72 kMESF (inactive).

Turning to `Nc1ccccc1SC(C[N+](=O)[O-])c1ccccc1` (centres undefined), the LAP4-GFP fluorescence (kMESF) is 11.5 kMESF (inactive).

With `CCC(C)/C(C)=N/NC(=O)c1ccc(COc2ccc(Cl)c(C)c2)cc1` (centres undefined), the LAP4-GFP fluorescence (kMESF) was 4.7 kMESF (inactive).

For the compound `COc1ccc2c(c1)c(/C=C/c1cc[n+](C)cc1)cn2C`, the LAP4-GFP fluorescence (kMESF) is 4.11 kMESF (inactive).

As to `COc1ccc(C=C2C(=O)c3ccccc3C2=O)cc1O`, the LAP4-GFP fluorescence (kMESF) is 3.24 kMESF (inactive).

For the compound `O=C(CS(=O)c1ccccc1[N+](=O)[O-])Oc1ccc(Br)cc1` (centres undefined), the LAP4-GFP fluorescence (kMESF) is 21.8 kMESF (inactive).

`CCCS(=O)(=O)c1nnnn1-c1cccc(OC)c1`: the LAP4-GFP fluorescence (kMESF) is 18.2 kMESF (inactive).

Regarding `O=C(O)c1cc[c]([Hg][Cl])cc1`, the LAP4-GFP fluorescence (kMESF) is 8.49 kMESF (inactive).

Consider `Cc1ccc(N2C(=O)C(Cl)=C(Nc3c(C)n(C)n(-c4ccccc4)c3=O)C2=O)cc1`, for which the LAP4-GFP fluorescence (kMESF) is 2.87 kMESF (inactive).

For the compound `CN(c1ccccc1)c1ccc(/C=c2\s/c(=C(/C#N)C(=O)C(C)(C)C)n(Cc3ccco3)c2=O)cc1`, the LAP4-GFP fluorescence (kMESF) was 10.4 kMESF (inactive).

`O=C1/C(=C\c2ccc(O)c(O)c2)SC(=S)N1Cc1ccccc1`: the LAP4-GFP fluorescence (kMESF) was -9.95 kMESF (inactive).

Take `N#C/C(=C\c1cc(Br)ccc1F)C(=O)NC1CC1`: the LAP4-GFP fluorescence (kMESF) is 18.3 kMESF (inactive).

In the case of `COc1ccc(-c2cc3nc4n(c(=O)c3s2)CCC4)cc1`, the LAP4-GFP fluorescence (kMESF) was 3.68 kMESF (inactive).

Turning to `Cc1ccc(N=c2ssnc2Cl)cc1`, the LAP4-GFP fluorescence (kMESF) is 10.6 kMESF (inactive).

Take `Cc1ccc(NC(=O)c2cc(N3C(=O)C=CC3=O)ccc2N2CCOCC2)cc1Cl`: the LAP4-GFP fluorescence (kMESF) is 10.5 kMESF (inactive).

With `Cc1ccccc1N1C(=O)C(Cl)=C(N2CCN(c3ccccc3)CC2)C1=O`, the LAP4-GFP fluorescence (kMESF) was 3.41 kMESF (inactive).

In the case of `O=C(CSC1=NS(=O)(=O)c2ccccc21)Nc1ccccc1`, the LAP4-GFP fluorescence (kMESF) is 7.82 kMESF (inactive).

As for `CC[C@]1(c2ccccc2C)ON(c2ccccc2C(F)(F)F)C1=O`, the LAP4-GFP fluorescence (kMESF) is 3.33 kMESF (inactive).

For `O=C(/C=C/Sc1ncn[nH]1)c1ccc(Cl)cc1`, the LAP4-GFP fluorescence (kMESF) was 15.9 kMESF (inactive).

Regarding `CCOC(=O)c1c(C)oc2c1c(C(c1ccncc1)N1CCOCC1)c(O)c1ccccc12` (centres undefined), the LAP4-GFP fluorescence (kMESF) is 6.29 kMESF (inactive).

For the compound `C=CCOc1ccc(C(=O)/C=C2/C(=O)Nc3ccccc32)cc1`, the LAP4-GFP fluorescence (kMESF) is 7.99 kMESF (inactive).

Consider `CCC(=O)Nc1ccc(NC(=O)c2cc3ccccc3o2)cc1`, for which the LAP4-GFP fluorescence (kMESF) is 3.31 kMESF (inactive).

Regarding `CC[C@H](C)/C=C(C)/C=C/C1=CC2=C(Cl)C(=O)[C@@](C)(OC(C)=O)C(=O)C2=CO1`, the LAP4-GFP fluorescence (kMESF) was 0.86 kMESF (inactive).

Take `O=C(/C=C/c1ccc(Br)cc1)NC(=S)NNC(=O)c1ccco1`: the LAP4-GFP fluorescence (kMESF) was 5.87 kMESF (inactive).

Turning to `c1ccc(-c2csc(Nc3cccnc3)n2)nc1`, the LAP4-GFP fluorescence (kMESF) was 3.67 kMESF (inactive).

Turning to `Cc1c(Br)c(=O)oc2c(Br)c(O)c(O)cc12`, the LAP4-GFP fluorescence (kMESF) is 2.43 kMESF (inactive).

Regarding `C=C1C(O)[C@@H]2O[C@]3(CC[C@H](/C=C/C(C)[C@@H]4CC(C)=CC5(O[C@H](C[C@@](C)(O)C(=O)O)CCC5O)O4)O3)CC[C@H]2O[C@@H]1C(O)CC(C)[C@H]1OC2(CCCCO2)CCC1C` (some centres undefined), the LAP4-GFP fluorescence (kMESF) was 11.7 kMESF (inactive).

For `CSc1nnc2c3cc(F)ccc3n(C)c2n1`, the LAP4-GFP fluorescence (kMESF) was 2.93 kMESF (inactive).

For `O=C1c2cccc3c([N+](=O)[O-])ccc(c23)C(=O)N1c1ccccn1`, the LAP4-GFP fluorescence (kMESF) is 7.78 kMESF (inactive).

Turning to `O=C1N(c2ccccc2C(F)(F)F)O[C@@]1(c1ccccc1)C1CCCC1`, the LAP4-GFP fluorescence (kMESF) is 2.93 kMESF (inactive).

`COC(CNC(=O)c1ccc2c3c(onc13)-c1ccccc1C2=O)OC`: the LAP4-GFP fluorescence (kMESF) was 2.86 kMESF (inactive).

Turning to `O=c1c2cc(Cl)ccc2nc(-c2ccc([N+](=O)[O-])cc2)n1O`, the LAP4-GFP fluorescence (kMESF) was 5.26 kMESF (inactive).

Regarding `CCOc1ccc(N2C(=O)C(Cl)=C(Nc3ccccc3O)C2=O)cc1`, the LAP4-GFP fluorescence (kMESF) was 5.81 kMESF (inactive).

With `O=C(OCC(=O)N1CCN(C(=O)c2ccco2)CC1)c1cc(-c2cccc(Br)c2)nc2ccccc12`, the LAP4-GFP fluorescence (kMESF) is 9.27 kMESF (inactive).

For `Oc1c(Br)cc(Br)cc1C=Nc1ccc2c(c1)OCO2`, the LAP4-GFP fluorescence (kMESF) was 10.8 kMESF (inactive).

With `CN(C)C(=O)Oc1ccnc2cc(Cl)ccc12`, the LAP4-GFP fluorescence (kMESF) is 2.83 kMESF (inactive).

As for `CCN(CC)c1ccc2cc(-c3nc4ccccc4[nH]3)c(=O)oc2c1`, the LAP4-GFP fluorescence (kMESF) is 3.03 kMESF (inactive).

For the compound `COc1ccc(NC2=C(Cl)C(=O)N(CCc3ccccc3)C2=O)c(OC)c1`, the LAP4-GFP fluorescence (kMESF) is 3.18 kMESF (inactive).

Consider `COC(=O)CCCC1=CC2=CC(=O)C(C)(OC(=O)CCc3ccccc3)C(=O)C2=CO1` (centres undefined), for which the LAP4-GFP fluorescence (kMESF) is 3.13 kMESF (inactive).

For `O=[N+]([O-])c1ccc(S(=O)(=O)c2ccccc2)nc1`, the LAP4-GFP fluorescence (kMESF) was 9.63 kMESF (inactive).

For the compound `CC(Oc1cc2oc(=O)c3c(c2cc1Cl)CCC3)C(=O)NCCN1CCOCC1` (centres undefined), the LAP4-GFP fluorescence (kMESF) was 2.43 kMESF (inactive).

For the compound `O=C(/C=C/c1ccccc1)NC(=S)NNC(=O)Cc1cccs1`, the LAP4-GFP fluorescence (kMESF) was 3.64 kMESF (inactive).

`CCCc1cc(=O)oc2cc(C)cc(OCC(=O)NC3CC3)c12`: the LAP4-GFP fluorescence (kMESF) was 3.74 kMESF (inactive).

Regarding `Cc1cc(NC(=O)c2cccnc2Cl)ccc1NC(=O)c1cc2ccccc2o1`, the LAP4-GFP fluorescence (kMESF) was 3.41 kMESF (inactive).

Regarding `CCOc1ccc(C(C)=O)cc1N1C(=O)C2C3C=CC(O3)C2C1=O` (centres undefined), the LAP4-GFP fluorescence (kMESF) was 14 kMESF (inactive).

With `O=C1c2ccccc2C(=O)N1OS(=O)(=O)c1ccccc1`, the LAP4-GFP fluorescence (kMESF) is 8.7 kMESF (inactive).

On to `Cc1ccccc1[C@@]1(C)ON(c2ccccc2C(F)(F)F)C1=O`, for which the LAP4-GFP fluorescence (kMESF) was 5.8 kMESF (inactive).

`Cc1c(NC2=C(Cl)C(=O)N(c3ccccc3)C2=O)c(=O)n(-c2ccccc2)n1C`: the LAP4-GFP fluorescence (kMESF) is 6.71 kMESF (inactive).

For `CCCCCCCCCCCCCCCC[n+]1cccc2ccccc21`, the LAP4-GFP fluorescence (kMESF) is 1.21 kMESF (inactive).

`Cc1ccc2c(c1)c(/C=C/c1cc[n+](C)cc1)c(C)n2C`: the LAP4-GFP fluorescence (kMESF) was 4.11 kMESF (inactive).

`COC(=O)CCC(=O)OC1(C)C(=O)C2=COC(c3ccc(OC)cc3)=CC2=C(Br)C1=O` (centres undefined): the LAP4-GFP fluorescence (kMESF) was 6.01 kMESF (inactive).

Regarding `Oc1c(CN2CCCCC2)cc(Br)c2cccnc12`, the LAP4-GFP fluorescence (kMESF) is 16 kMESF (inactive).

`COc1ccc(C(=O)/C=C2/C(=O)Nc3ccccc32)c(OC)c1`: the LAP4-GFP fluorescence (kMESF) was 10.1 kMESF (inactive).

For `O=[N+]([O-])c1cc(CN2CCN(c3cccc(C(F)(F)F)c3)CC2)c2cccnc2c1O`, the LAP4-GFP fluorescence (kMESF) is 7.46 kMESF (inactive).

Turning to `CCCCc1ccc(NC(=O)CC(C)=O)cc1`, the LAP4-GFP fluorescence (kMESF) was 3.54 kMESF (inactive).

On to `CC(OC(=O)c1ccco1)C(=O)Nc1nc(-c2ccccc2)cs1` (centres undefined), for which the LAP4-GFP fluorescence (kMESF) is 3.33 kMESF (inactive).
